Measured values published in article PMC10584170, “Machine learning-based phenotypic imaging to characterise the targetable biology of Plasmodium falciparum male gametocytes for the development of transmission-blocking antimalarials” (PLOS Pathogens, 2023).
Where two headings read alike, the source gives them in different places.

Assays:
[1] = test system: P. falciparum female gametocytes; test: P. falciparum Dual Gamete Formation Assay (PfDGFA), female readout (Pfs25-positive female gametes); format: cell-based, Plasmodium falciparum NF54; settings: for % inhibition female (individual replicates) R1 / % inhibition female (individual replicates) R3 / % inhibition female (individual replicates) R4 / Average inhibition female (%) / inhibition at 2 µM: PfDGFA at 2µM; for IC50: PfDGFA, 24 h incubation with gametocytes before induction, female gamete readout, read-out: Female IC50; for HitlevelF: number of replicates with >50% inhibition in the female readout, 2µM
Description: (§1) P. falciparum NF54 (originally isolated from an imported malaria case in the Netherlands in the 1980s; BEI Resources, cat. No. MRA-1000) strain asexual parasites were maintained between 0.3–5% parasitaemia by regular passage in complete culture medium (RPMI supplemented with 25 mM HEPES, 50 μg ml^−1 hypoxanthine, 4.8 g l^−1 NaHCO3, 2mM L-glutamine, 5% pooled type AB serum, 0.5% Albumax II (Gibco)) at 4% haematocrit in washed whole blood (National Blood and Transfusion Service or Centro de Transfusiones de la Comunidad de Madrid CTCM) under a 1% O2/3% CO2/96% N2 environment. Gametocytes were induced by seeding culture flasks at 2% parasitaemia/4% haematocrit and subjecting them to daily medium changes for 14 days whilst maintaining a temperature of 37°C at all times. On Day 14, the maturity of gametocytes was assessed by quantifying male gametogenesis (exflagellation). A 20 μl sample of gametocyte culture was mixed with equal volume of ookinete medium (complete culture medium supplemented with 0.1 μM xanthurenic acid) at room temperature and transferred to a haemocytometer. After 20 min at room temperature, exflagellation was accurately quantified as described in Delves et al. 2016 [17].
(§2) The Pf DGFA was performed as described in Delves et al. 2016 [17]. […] Plates were then incubated for 24 h at 37°C in a humidified box under a 1% O2/3% CO2/96% N2 gas mix. Gametogenesis was triggered by addition of 10 μl per well of ookinete medium + 0.27 μg ml^-1 Cy3-labelled anti-Pfs25 antibody. Plates were incubated on a metal block at 4°C for 4 min to ensure even cooling, then 28°C for a further 4 min. Exflagellation was recorded by capturing 10 frames over 1 s under brightfield illumination using a x4 objective with a 1.5x zoom (effectively x6) attached to an automated Nikon Ti fluorescence microscope. After recording exflagellation, plates were incubated for a further 24 h in the dark at 28°C to ensure maximal expression of Pfs25 by female gametes. The plates were then returned to the microscope and female gametes imaged at x6 using fluorescence microscopy.
(§3) Exflagellation centres and female gametes were quantified using custom image analysis pipelines developed within ICY Bioimage Analysis (https://icy.bioimageanalysis.org/).

[2] = test system: P. falciparum male gametocytes; test: P. falciparum Dual Gamete Formation Assay (PfDGFA), male readout (exflagellation); format: cell-based, Plasmodium falciparum NF54; settings: for % inhibition male (individual replicates) R1 / % inhibition male (individual replicates) R3 / % inhibition male (individual replicates) R4 / Average inhibition male (%) / inhibition at 2 µM: PfDGFA at 2µM; for % inhibition male (individual replicates) R3: replicate R3; for IC50: PfDGFA, 24 h incubation with gametocytes before induction, exflagellation readout, read-out: Male IC50; for HitlevelM: number of replicates with >50% inhibition in the male readout, 2µM
Description: as §1, §2, §3

[3] = 24h preincubation with gametocytes prior to induction of gametogenesis, replicate R1
[4] = 24h preincubation with gametocytes prior to induction of gametogenesis, replicate R3
[5] = 24h preincubation with gametocytes prior to induction of gametogenesis, replicate R4
[6] = 24h preincubation, average of replicates
[7] = 24h preincubation with gametocytes prior to induction of gametogenesis
[8] = 24h preincubation with gametocytes, average of replicates
[9] = 24h preincubation with gametocytes, replicate R1
[10] = 24h preincubation with gametocytes, replicate R4

Row | SMILES | % inhibition female (individual replicates) R1 [1, 3] [%] | % inhibition female (individual replicates) R3 [1, 4] [%] | % inhibition female (individual replicates) R4 [1, 5] [%] | Average inhibition female (%) [1, 6] [%] | % inhibition male (individual replicates) R1 [2, 3] [%] | % inhibition male (individual replicates) R3 [2, 7] [%] | % inhibition male (individual replicates) R4 [2, 5] [%] | Average inhibition male (%) [2, 6] [%] | HitlevelF [1] | HitlevelM [2] | other results
1 | Br.CC(C)(C)c1ccc(Cn2c(=N)n(CC(=O)c3ccc(-c4ccccc4)cc3)c3ccccc32)cc1 [TCMDC-124030] | -3.8 | -20.2 | -0.7 | -8.6 | -15.4 | -16.6 | -3.3 | -8.2 | – | – | –
2 | O=C(Nc1ccc([N+](=O)[O-])cc1)c1nn(-c2ccccc2)cc1/N=C/c1cccc(O)c1 [TCMDC-124108] | 7.8 | -29.5 | -3.2 | -2.4 | -5.9 | -27.6 | -9.8 | -10.2 | – | – | –
3 | c1ccc2[nH]c(CN(Cc3nc4ccccc4[nH]3)Cc3nc4ccccc4[nH]3)nc2c1 [TCMDC-124132] | – | – | – | – | – | – | – | – | 0 | 3 | Selectivity ratio F ([1]; HepG2 Tox50 versus female IC50): 10.00; inhibition at 2 µM ([1]; Plasmodium falciparum, 24h preincubation with gametocytes, average of replicates, read-out: Average inhibition female (%)): 5%; inhibition at 2 µM ([1]; Plasmodium falciparum, 24h preincubation with gametocytes, replicate R1, read-out: % inhibition female (individual replicates) R1): 1.1%; inhibition at 2 µM ([1]; Plasmodium falciparum, 24h preincubation with gametocytes, replicate R2, read-out: % inhibition female (individual replicates) R2): -7.6%; inhibition at 2 µM ([1]; Plasmodium falciparum, 24h preincubation with gametocytes, replicate R3, read-out: % inhibition female (individual replicates) R3): 23.9%; inhibition at 2 µM ([1]; Plasmodium falciparum, 24h preincubation with gametocytes, replicate R4, read-out: % inhibition female (individual replicates) R4): 2.5%; IC50 ([1]; Plasmodium falciparum): > 10000 nM; Selectivity Ratio M ([2]; HepG2 Tox50 versus male IC50): 14.81; inhibition at 2 µM ([2]; Plasmodium falciparum, 24h preincubation with gametocytes, average of replicates, read-out: Average inhibition male (%)): 78.3%; inhibition at 2 µM ([2]; Plasmodium falciparum, 24h preincubation with gametocytes, replicate R1, read-out: % inhibition male (individual replicates) R1): 68.8%; inhibition at 2 µM ([2]; Plasmodium falciparum, 24h preincubation with gametocytes, replicate R2, read-out: % inhibition male (individual replicates) R2): 80.9%; inhibition at 2 µM ([2]; Plasmodium falciparum, 24h preincubation with gametocytes, replicate R4, read-out: % inhibition male (individual replicates) R4): 85.2%; IC50 ([2]; Plasmodium falciparum): 6750 nM
4 | COc1ccc(N2C(N)=NC(N)=NC2(C)C)cc1.Cl [TCMDC-124269] | 13.5 | -15.3 | 10.3 | 1.7 | 22.5 | 4.0 | -9.1 | 11.6 | – | – | –
5 | CC(=NNC(=S)NCCc1ccccc1)c1ccccn1 [TCMDC-124270] | – | – | – | – | – | – | – | – | 1 | 3 | Average inhibition female (%) [1, 8]: 36.2%; % inhibition female (individual replicates) R1 [1, 9]: 25.2%; % inhibition female (individual replicates) R3 ([1]; 24h preincubation with gametocytes, replicate R3): 20.9%; % inhibition female (individual replicates) R4 [1, 10]: 55.8%; IC50 [1]: 530 nM; Average inhibition male (%) [2, 8]: 63.1%; % inhibition male (individual replicates) R1 [2, 9]: 70.1%; % inhibition male (individual replicates) R3 ([2]; 24h preincubation with gametocytes): 69.5%; % inhibition male (individual replicates) R4 [2, 10]: 18.9%; IC50 [2]: 640 nM
6 | CC(C)(c1ccccc1)c1ccc(O)c(CN2CCOCC2)c1 [TCMDC-124276] | 0.5 | 8.1 | -2.3 | -2.0 | 1.1 | – | -1.8 | 10.2 | – | – | –
